Results taken from patent publication US20050142537A1, “System and method for rapid detection of metabolic deviations of a biological sample” (priority 2003, published 2005).

Tested on: E. coli
Assay: Impedance-based rapid detection of metabolic deviations (sensitivity testing) of a biological sample containing E. coli
Assay type: cell-based
Excerpt: There is shown in FIG. 1, system 10 for rapid detection of metabolic deviations of a biological sample of this invention. System 10 includes control chamber 12 which receives biological sample 14 via fluidic channel 15. Control chamber 12 also includes spaced electrodes 16 and 18 which are used to measure the impedance of biological sample 14 disposed in control chamber 12, as discussed in further detail below. Biological sample 14 may be blood, urine, sputum, feces, spinal fluid, food, water, a solution containing one or more microbial organisms, or any other biological sample known to those skilled in the art. The microbial organisms in biological sample 14 may include any biological cell, such as Escherichia coli, Staphylococcus aureus, Enterococcus faecalis, Streptococcus pneumoniae, Neisseria gonorrhoeae, Mycobacterium tuberculosis, Saccharomyces cerevisiae, or any other microbial organism known to those skilled in the art. […]
System 10 includes measuring and detection device 28 connected to electrodes 16 and 18 of control chamber 12 by lines 29 and 31 and electrodes 24 and 26 of target chamber 22 by lines 33 and 35. […] Measuring and detection device 28 then compares the measured second impedances to the measured first impedances to determine if biological reagent 20 has induced any metabolic deviations to biological sample 14 in target chamber 22. […]

CCn1cc(C(=O)O)c(=O)c2cc(F)c(N3CCNCC3)cc21 [Norfloxacin]
time at which sensitivity of the biological sample to the biological reagent is detected (FIG. 7 dashed line 404): about 40 minutes
sensitivity of the biological sample to the biological reagent (measured impedance response vs control sample, FIG. 7 curve 402 vs curve 400): sensitive
